Assay [1] concerns 5-HT1D. Put plainly: 5-HT1D radioligand binding assay (3H-5HT, crude pig striatal membranes). The following applies: for % inhibition of binding, 5-HT1D: mean of triplicates. As to the method:
(§1) 5-HT1D radioligand binding assay was carried out according to Heuring and Peroutka (Heuring, R. E., and Peroutka, S. J., J. Neurosci., 7:894-903, 1987) with slight modifications as follows. Polypropylene tubes containing ^3 H-5HT (2 nM), cyanopindolol (100 nM), mesulergine (100 nM) and crude pig striatal membranes (10 mg wet weight per tube) in a final assay volume of 1 ml were used. All reagents and tissues were made up in […] Tris. HCl containing 0.1% ascorbate, 10 μM pargyline and 4 mM CaCl2 (pH 7.7 at room temperature). 5-HT (10 μM) was used to define non-specific binding. The incubation was initiated by the addition of membranes and carried out for 30 minutes at 37° C. Following incubation, membranes were rapidly filtered under vacuum through Whatmann GF/B filters using a Brandel Cell Harvester, followed by 2×3 ml washes with 50 mM Tris. HCl (pH 7.7 at room temperature). Bound radioactivity was determined by liquid scintillation spectrometry. 5-HT1A and 5-HT2 radioligand binding assays were performed according to Hall, et al., J. Neurochem., 44, 1685-1696, 1985 and Titeler, et al., Eur. J. Pharmacol., 117, 145-146, 1987, respectively.

The target in assay [2] is T1, 5-HT1A (Rattus norvegicus, UniProt P19327).
T1 construct: from tissue
T1 sequence (P19327 1-422): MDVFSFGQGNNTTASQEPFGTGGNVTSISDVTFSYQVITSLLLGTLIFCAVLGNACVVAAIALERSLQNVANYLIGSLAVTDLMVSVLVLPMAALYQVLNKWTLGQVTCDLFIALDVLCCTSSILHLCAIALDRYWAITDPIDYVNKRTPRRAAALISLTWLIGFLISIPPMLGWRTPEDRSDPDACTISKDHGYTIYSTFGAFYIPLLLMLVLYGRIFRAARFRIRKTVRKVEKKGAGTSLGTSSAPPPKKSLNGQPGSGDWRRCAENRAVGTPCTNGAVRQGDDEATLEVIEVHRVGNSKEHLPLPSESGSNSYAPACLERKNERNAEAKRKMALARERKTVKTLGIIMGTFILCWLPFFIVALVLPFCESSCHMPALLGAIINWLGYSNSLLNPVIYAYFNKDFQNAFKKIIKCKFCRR
Put plainly: 5-HT1A radioligand binding assay. How it is done: as §1

The target in assay [3] is T2, 5-HT2 (Rattus norvegicus, UniProt P14842).
T2 construct: from tissue; host or cells: rat cortical membranes (inferred from the cited Titeler et al)
Put plainly: 5-HT2 radioligand binding assay. As to conditions: mean of triplicates. As to the method: as §1

T2 sequence (P14842 whole entry): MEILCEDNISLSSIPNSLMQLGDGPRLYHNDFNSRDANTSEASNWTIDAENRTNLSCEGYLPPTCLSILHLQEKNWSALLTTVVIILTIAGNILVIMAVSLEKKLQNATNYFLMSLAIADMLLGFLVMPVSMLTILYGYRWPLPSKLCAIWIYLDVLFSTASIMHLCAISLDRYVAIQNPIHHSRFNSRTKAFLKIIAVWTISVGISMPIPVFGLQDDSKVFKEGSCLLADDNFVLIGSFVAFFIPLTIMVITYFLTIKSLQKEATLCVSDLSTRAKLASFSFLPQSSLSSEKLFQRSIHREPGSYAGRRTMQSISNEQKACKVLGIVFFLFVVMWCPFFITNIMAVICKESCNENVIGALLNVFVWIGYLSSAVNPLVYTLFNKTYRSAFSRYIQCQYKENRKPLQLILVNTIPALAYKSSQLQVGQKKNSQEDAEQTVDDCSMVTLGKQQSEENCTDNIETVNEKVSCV

As to `C=CC(C)(C)n1cc(CN(C)C)c2ccccc21` [Compound I, 1-(1,1-dimethylallyl)-3-dimethylaminomethylindole], the entries for the “% inhibition of binding, 5-HT1D” value in assay [1] (4.1 μM) and in assay [1] (41 μM) were 44% and 81%, respectively. For the same molecule, the inhibition (in general, the percentage by which the read-out fell short of the control) at 4.1 µM in assay [2] (4.1 μM, mean of triplicates) came out at 20%; in assay [3] (4.1 μM), 42%. Further, the inhibition at 41 µM stood at 62% in assay [2] (41 μM, mean of triplicates) and 86% in assay [3] (41 μM). In addition, in assay [2] (5-HT1A versus 5-HT1D and 5-HT2), the “affinity for 5-HT1A relative to 5-HT1D and 5-HT2” value is “less affinity for 5-HT1A than for 5-HT1D and 5-HT2 receptor subtypes”.
Regarding `CNS(=O)(=O)Cc1ccc2[nH]cc(CCN(C)C)c2c1` [sumatriptan, reference compound], the “rank order of affinity for these subtypes” value in assay [1] (5-HT1D, 5-HT1A, 5-HT2, for comparison) is recorded as 5-HT1D >5-HT1A >5-HT2. Further, the “pIC50, 5-HT1D” value in assay [1] (for comparison) was determined as 7.7. Besides, the IC50 (as a rule, the concentration that gives 50% inhibition) in assay [2] is 0.501 µM.
